# Source: PubChem BioAssay (NCI)
#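 Step 1: Grow cells in 96-well plates. Step 2: Expose to compound for 48 hours at 5 concentrations. Step 3: Interpolate endpoints linearly; if unreached, use highest concentration. Abbreviation: GI50, concentration required for 50% inhibition of growth. TGI is the concentration that stops growth completely.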
# Key:
# Test in all cases: inhibition of tumour cell growth, NCI panel, 48 h
# [1] = system: HOP-62 NSCLC
# [2] = system: DLD-1 colon
# [3] = system: CAKI-1 renal
# [4] = system: SF-295 CNS
# [5] = system: M19-MEL melanoma
# [6] = system: NCI-H522 lung
# [7] = system: MOLT-4 leukemia
# [8] = system: HCT-116 colon
# [9] = system: HOP-92 NSCLC
# [10] = system: HS 578T breast
SMILES,GI50 [1],TGI [1],GI50 [2],TGI [2],GI50 [3],TGI [3],GI50 [4],TGI [4],GI50 [5],TGI [5],GI50 [6],TGI [6],GI50 [7],TGI [7],GI50 [8],TGI [8],GI50 [9],TGI [9],TGI [10]
CCCCCCC[CH2][Sn]1([CH2]CCCCCCC)[O]C(=O)c2cccnc2[S]1,> 100 µM,> 100 µM,> 100 µM,> 100 µM,> 100 µM,> 100 µM,> 100 µM,> 100 µM,> 100 µM,> 100 µM,> 100 µM,> 100 µM,> 100 µM,> 100 µM,> 100 µM,> 100 µM,> 100 µM,> 100 µM,
O=C(NCCCCN=c1cccccc1NCCCCNC(=O)OCc1ccccc1)OCc1ccccc1,,39 µM,,43.6 µM,,37.9 µM,,26.9 µM,,39.3 µM,,36.8 µM,,38.1 µM,,25 µM,,20.1 µM,
COc1ccc2oc(-c3cccnc3)cc(=O)c2c1,,> 100 µM,,> 100 µM,,> 100 µM,,> 100 µM,,> 100 µM,,,,> 100 µM,,> 100 µM,,> 100 µM,
COC1C(O)=C2C(=O)O/C(C)=C/C=C/C=C/C=C\CC(c3ccccc3)NC(=O)\C=C/C=C\C=C\C=C\[C@@]2(C)[C@@H]1O (stereo not given in full),,0.146 µM,,0.147 µM,,0.0582 µM,,0.0238 µM,,0.273 µM,,< 0.0285 µM,,0.177 µM,,0.0198 µM,,< 0.0199 µM,0.0395 µM
CCOc1ccc(N2C(=O)/C(=C/c3ccc(N(CCC#N)CCC#N)cc3)N=C2c2cc([N+](=O)[O-])ccc2Cl)cc1,,> 100 µM,,> 100 µM,,87.1 µM,,83.7 µM,,66.5 µM,,,,13.8 µM,,39.5 µM,,,
CCOC(=O)C1(c2ccccc2)CCC(=O)CC1,,> 100 µM,,> 100 µM,,> 100 µM,,> 100 µM,,> 100 µM,,> 100 µM,,> 100 µM,,> 100 µM,,> 100 µM,
Cc1ccc(S(=O)(=O)N/N=C/c2oc(-c3ccncc3)c(-c3ccncc3)c2[N+](=O)[O-])cc1,,> 100 µM,,> 100 µM,,> 100 µM,,> 100 µM,,> 100 µM,,> 100 µM,,> 100 µM,,> 100 µM,,,
C[C@H]1NC(=O)C2CCCCN2C(=O)CN(C)C(=O)CNC(=O)C2CCCCN2C(=O)[C@@H](NC(=O)c2nc3ccccc3cc2O)[C@@H](C)NC(=O)C2CCCCN2C(=O)CN(C)C(=O)CNC(=O)[C@@H]2CCCCN2C(=O)C1NC(=O)c1nc2ccccc2cc1O (stereo not given in full),,0.66 µM,,,,0.768 µM,,4.8 µM,,0.56 µM,,0.494 µM,,7.03 µM,,,,,
O=C(O)[C@H](NS(=O)(=O)c1ccc2ccccc2c1)c1ccccc1,,,,> 100 µM,,> 100 µM,,,,> 100 µM,,> 100 µM,,> 100 µM,,,,> 100 µM,
CCOc1ccc2c(c1)[n+]([O-])c(-c1ccccc1Cl)c(N)[n+]2[O-],,> 100 µM,,> 100 µM,,> 100 µM,,> 100 µM,,> 100 µM,,33.8 µM,,> 100 µM,,> 100 µM,,> 100 µM,
Cc1ccc(NC(=O)C2C(=O)N(c3ccc(C)c(C)c3)C(=O)C2N=N)cc1C (stereo not given),,> 100 µM,,> 100 µM,,> 100 µM,,> 100 µM,,> 100 µM,,> 100 µM,,> 100 µM,,> 100 µM,,> 100 µM,
O=C1[C@@H]2C3c4ccccc4C([C@@H]2C(=O)N1c1ccccc1)S3(=O)=O,,,,> 100 µM,,,,> 100 µM,,> 100 µM,,> 100 µM,,> 100 µM,,> 100 µM,,> 100 µM,
COc1cccc(/C=N/[N-]C(=O)c2ccncc2)c1[O-].[Cu+2].[OH3+],15.7 µM,86.4 µM,52.6 µM,> 100 µM,> 100 µM,> 100 µM,> 100 µM,> 100 µM,> 100 µM,> 100 µM,,,35.2 µM,> 100 µM,23.8 µM,93.9 µM,> 100 µM,> 100 µM,
O=C(c1ccc(Cl)cc1)c1cnc(Nc2ccccc2Cl)s1,,54 µM,,> 100 µM,,40 µM,,44.3 µM,,> 100 µM,,53.1 µM,,> 100 µM,,41.7 µM,,49.5 µM,68.8 µM
O=C1CC(C[C@H](O)C2CCCCC2O)CC(=O)N1Cc1ccccc1 (stereo not given in full),,> 100 µM,,> 100 µM,,> 100 µM,,> 100 µM,,> 100 µM,,> 100 µM,,> 100 µM,,> 100 µM,,,
